Six compounds from US20070179181A1, “Treatment of inflammatory disorders and pain using beta-aminoalcohols” (priority 2004, published 2007) can be followed below.

SMILES strings stand for the structures.

The test system of one test is TNFα. In words: LPS mouse assay, serum TNFα. To be noted: LPS-challenged mouse. The format is in vivo, Balb C ByJ mice. How it is done:
Brains from Wistar rats were homogenised and incubated with test article (over a concentration range) and the radioligand 3H-prazosin (0.25 nM) for 30 minutes at 25° C., in a 50 mM Tris-HCl, 0.1% ascorbic acid, 10 μM pargyline incubation buffer. After washing, binding was measured by scintillation counting. LPS Mouse Assay
7 week old Balb C ByJ mice (24-28 g) were administered, either by i.p. (5 ml/kg) or oral (10 ml/kg) administration, with vehicle or test article. 30 minutes later these animals were challenged with an intraperitoneal injection of 1 mg/kg LPS. 2 hours after LPS challenge blood samples were collected under light isoflurane anaesthesia into normal tubes by retro-orbital puncture. Samples were allowed to clot at room temperature and then spun at 6000 g for 3 min at 4° C. Serum was stored at −20° C. until use. Serum TNFa and IL-10 levels were analysed in duplicate by ELISA technique.

Another test deals with alpha1 adrenoceptor. In words: Alpha1 adrenoceptor binding affinity (3H-prazosin, rat brain homogenate). Set-up: species or system Wistar rats. To be noted: radioligand 3H-prazosin 0.25 nM. The method, then: Adrenoceptor Binding Affinity Brains from Wistar rats were homogenised and incubated with test article (over a concentration range) and the radioligand 3H-prazosin (0.25 nM) for 30 minutes at 25° C., in a 50 mM Tris-HCl, 0.1% ascorbic acid, 10 μM pargyline incubation buffer. After washing, binding was measured by scintillation counting. LPS Mouse Assay

The test system of test [1] is rat adjuvant model of arthritis. In words: Rat adjuvant assay (model of arthritis). The format is in vivo, Wistar rats. How it is done:
Rat Adjuvant Assay Male Wistar rats (180 to 200 g) were inoculated by subplantar injection of freund's adjuvant (suspension of Mycobacterium butyricum in mineral oil) into the right paw at day 0. Sham inoculations were injected in the same way with 0.9% saline in matched Male Wistar rats. On day 2 animals were weighed. On days 3, 4, 7, 9 and 11 animals were weighed and both their right and left hind paws were measure by plethsymometry by submerging the paw up to the tibiotarsal joint. On day 11, rats with left hind paw volumes increased by 20% were selected for continuance in the study. On the same day continuance rats were administered test article orally (10 ml/kg in distilled water) and from then on once a day until the completion of the study. Left and right hind paw volumes were measured on days 11, 14, 15, 16, 18 and 21.

Consider `CC(NCCc1ccc(O)cc1)C(O)c1ccc(O)cc1` (stereo not shown) [ritodrine], for which the “LPS-induced systemic TNFα release in mouse blood” value in the test on TNFα is listed as “cytokine modulatory activity”.

`CC(C(O)c1ccc(O)cc1)N1CCC(Cc2ccccc2)CC1` (stereo not drawn) [threo (+), Ifenprodil] gave an Alpha1 affinity in the test on alpha1 adrenoceptor of 2160 nM.

As to `CC(C(O)c1ccc(O)cc1)N1CCC(Cc2ccccc2)CC1` (stereo not drawn) [erythro (−), Ifenprodil], in the test with alpha1 adrenoceptor, the Alpha1 affinity was 482 nM.

Take `CC(C(O)c1ccc(O)cc1)N1CCC(Cc2ccccc2)CC1` (stereo not drawn) [erythro (+), Ifenprodil]: in the test on alpha1 adrenoceptor, the Alpha1 affinity came out at 63 nM.

Consider `CC(CCc1ccccc1)NCC(O)c1ccc(O)c(C(N)=O)c1` (stereo not shown) [labetalol], for which the “efficacy in rat adjuvant model of arthritis” value in test [1] (30 mg/kg) and in test [1] (100 mg/kg) was “Pronounced (and similar) efficacy” throughout.

On to `CC(C(O)c1ccc(O)cc1)N1CCC(Cc2ccccc2)CC1` (stereo not drawn) [threo (−), Ifenprodil], for which the Alpha1 affinity with alpha1 adrenoceptor came to 439 nM.
